Where two headings read alike, the source gives them in different places.
Tests used:
[1] = test system: Gal4-RARα; test: Transactivation, chimerical receptor Gal4-RARα (transitory transfection of HeLa); assay type: cell-based; conditions: 100% = TTNPB 10^-8 M
[2] = test system: RAR and RXR receptors; test: RAR/RXR activity profile drawn from the models; assay type: cell-based
From the text: The reference molecules have allowed one to show the effectiveness and the complementary nature of the different models used and lead to the following conclusions: chimerical constructions GAL-RAR and RAR-ERcassette allow the determination of the RAR agonist profile of molecules, but also an RXR agonist activity with RAR-ERcassette, the HRLN lineage mainly conveys the activity of a compound mediated by endogenic RARα, the HRL+N lineage also provides evidence of an RXR agonist activity of the retinoids, the anti-oestrogenic effect of the retinoids (oestrogen-induced cellular proliferation and MELN lineage) is mediated by RARα, the anti-AP-1 effect is mediated in the MCF-7 cells (MTLN lineage) by RARα, RARγ and RXRα, and an additive effect exists between the RAR and RXR routes.

[3] = test system: Gal4-RAR (RARα, RARβ, RARγ); test: Chimerical receptors Gal4-RAR, overall profile; assay type: cell-based
[4] = test system: A-427 human pulmonary cancer cells; test: MTT test, proliferation of A-427; conditions: for activity at 0.01 µM / activity at 1 µM / activity at 100 µM: Homo sapiens, A-427, 72 h, read-out: level of proliferation; for effect on cellular increase, A-427 (in words): MTT test
[5] = test system: T-47D human mammary cancer cells; test: MTT test, proliferation of T-47D; assay type: cell-based; conditions: for activity at 100 µM / activity at 1 µM / activity at 0.01 µM: Homo sapiens, T47D, 72 h, read-out: level of proliferation; for effect on cellular increase, T-47D (in words): MTT test
How it was run: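 After 24 h seeding, cells in MEM with 5% decomplemented FCS at 37° C were exposed to compound at 10^-8 M, 10^-6 M and 10^-4 M. Viability was assessed by MTT reduction to formazan, dissolved in DMSO. Mean optical density is expressed as % of untreated control (100%), in 6 duplicates.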

[6] = test system: RARα-ERcassette; test: Transactivation, chimerical receptor RARα-ERcassette (HeLa); assay type: cell-based; conditions: TTNPB 10^-8 M = 100
From the text: The HeLa cells are co-transfected by a plasmid which codes for a retinoic receptor in which the C domain of bonding to the DNA is substituted by that of the receptor to RE oestrogens, and a plasmid which places the expression of the luciferase under the control of an ERE (Element of Response to Oestrogens). The expressed chimerical receptors are designated as RARα-ERcassette, RARβ-ERcassette, RARγ-ERcassette and RXRα-ERcassette. The A, B, D, E and F regions of the natural receptor are preserved as well as the transcriptional co-operation between the activation domains AF-1 and AF-2. These transitory transfection experiments follow the method of co-precipitation to calcium phosphate. The HeLa cells are co-transfected by […] of plasmid coding for the chimerical receptor, […] of reporter plasmid and […] of expression vector CMV-β-galactosidase used as an internal control of transfection. 24 hours after the transfection, the cells are incubated for 16 hours with the different effectors.
In this type of chimerical receptor, the C domain of bonding to the DNA of RAR is substituted by that of the receptor to the RE oestrogens. The protein obtained is close to the natural RAR receptor and preserves the transcriptional properties of the AF-1 and AF-2 domains. It modulates the transcription by means of an ERE. This RAR-ERcassette model allows one to observe a transcriptional response to a more physiological ligand.

[7] = test system: RARE, endogenic RAR and RXR receptors, HRL+N lineage; test: HRL+N transactivation (RARE-luciferase, stably transfected HeLa); assay type: cell-based; set-up: Emax: dose or concentration left out as unconfirmed; conditions: for Emax: Homo sapiens, HeLa
Procedure: MCF-7 cells and HeLa are cultivated in DMFM with phenol red to which 5% foetal calf serum is added. The T47-D cells are cultivated in RPMI to which 10% foetal calf serum is added. The experimental tests are carried out in DMEM without phenol red to which foetal calf serum treated with dextran carbon is added at 3%. […] The experiments using the different retinoids are carried out sheltered from the light so as to avoid any isomerisation.
Certain properties of the retinoids have been determined using more developed cellular models. These models consist of cellular lineages transfected in a stable fashion by recombinant plasmids which place the expression of the gene of the luciferase under the control of different nuclear response elements. […] The tests carried out in duplicate are described below for each of these models.
The cellular lineages HRLN and HRL+N allow one to study the activation of an RARE by endogenic receptors using ligands at physiological concentrations. These lineages derive from HeLa cells transfected in a stable fashion by a reporter gene which places the expression of the gene of the luciferase under the control of a nuclear response element RARE (RARE3 -tk-Luc). The HeLa cells express all the known receptors of the retinoic acid (RARα,β,γ and RXRα,β,γ) with a predominance of RARα and RXRα. The response element RARE used for the HRLN cells corresponds to the sequence of the natural gene of the RARβ receptor (GGTTCAnnnnnAGTTCA). The HRL+N cells comprise the sequence GAGTGAnnnnnCGGTGA.
The HRL+N lineage allows one to visualise a co-activation of the RAR and RXR receptors at the level of the RAR-RXR hetero-dimer.

| SMILES | GAL4-RAR RARα transactivation ([1]; 10^-6 M) | Gal-RAR agonist profile (in words) [3] | activity at 0.01 µM [4] | activity at 1 µM [4] | activity at 100 µM [4] | activity at 100 µM ([5]; T-47D, 10^-4 M, control = 100%) | activity at 1 µM ([5]; T-47D, 10^-6 M, control = 100%) | activity at 0.01 µM ([5]; T-47D, 10^-8 M, control = 100%) | RAR-ERcassette RARα transactivation ([6]; 10^-6 M) | RAR-ERcassette RARα transactivation ([6]; 10^-7 M) | RAR-ERcassette RARα transactivation ([6]; 10^-8 M) | GAL4-RAR RARα transactivation ([1]; 10^-7 M) | HRL+N transactivation (in words) [7] | effect on cellular increase, T-47D (in words) [5] | further results |
| --- | --- | --- | --- | --- | --- | --- | --- | --- | --- | --- | --- | --- | --- | --- | --- |
| CC1(C)CCC(C)(C)c2cc(/C=C(\c3ccc(C(=O)O)cc3)C(F)(F)F)ccc21 [CB36493, (E) 4-[1-trifluoromethyl-2-(5,6,7,8-tetrahydro-5,5,8,8-tetramethyl-2-naphthalenyl)-1-ethenyl]benzoic acid] | 38% | partial agonists at 1 μM for the three RAR receptors | 89.9% | 87.2% | 1.6% | 21.4% | 116% | 134% | 91% | 15% | 1% | – | – | – | RAR/RXR activity profile (in words) [2]: panagonistic |
| C/C(=C/c1ccc2c(c1)C(C)(C)CCC2(C)C)c1ccc(C(=O)O)cc1 [CB28628, reference compound] | – | completely agonistic for the three types of RAR receptors | 86.7% | 86.8% | 2.5% | 4% | 59.3% | 93.2% | 179% | 95% | 35% | 103% | induces a transactivation maximum greater than that of TTNPB | – | Emax ([7]; read-out: HRL+N transactivation, E max (Table 27)): 158% |
| Cc1cc2c(cc1C(=O)c1ccc(C(=O)O)cc1)C(C)(C)CCC2(C)C [LGD-CB14499, reference compound] | 17% | – | – | – | – | – | – | – | 42% | 12% | 4% | 4% | induce a stronger transactivation with the HRL+N cells | – | GAL4-RAR RARα transactivation ([1]; 10^-8 M): 1%; activity at 0.01 µM [5]: 88.2%; activity at 1 µM [5]: 82.7%; activity at 100 µM [5]: 1.3% |
| CC(C=C/C=C(C)\C=C\C1=C(C)CCCC1(C)C)=CC(=O)O [CB13407, 9-cis retinoic acid, reference compound] | – | – | – | – | 5.9% | 16.3% | 91.7% | 122% | 348% | 187% | 60% | – | – | stimulates the cellular increase at 10^-6 M and 10^-8 M | RAR-ERcassette RARα transactivation ([6]; 10^-9 M): 7% |
| C/C(=C\c1cc2c(cc1C)C(C)(C)CCC2(C)C)c1ccc(C(=O)O)cc1 [CB71802] | – | – | 69.7% | 65.6% | 1% | 14.3% | 113% | 132% | – | – | – | – | – | – | effect on cellular increase, A-427 (in words) [4]: inhibits the increase of these two pulmonary lineages the most strongly |
| C/C(=C\c1ccc2c(c1)C(C)(C)CCC2(C)C)c1ccc(C(=O)Nc2nnn[nH]2)cc1 [CB73364] | – | – | 92.7% | 87.2% | 0.1% | 0% | 53% | 62% | 74% | – | – | – | – | inhibits the increase of the T-47D cells | – |
| CC1=C(/C=C/C(C)=C/C=C/C(C)=C/C(=O)O)C(C)(C)CCC1 [CB16178, all-trans retinoic acid, reference compound] | 108% | good RAR agonists | – | 68.2% | 1.5% | 1.8% | 52.6% | 77.2% | 443% | 249% | 127% | 102% | – | inhibit the cellular increase of the two mammary lineages at the concentrations tested | GAL4-RAR RARα transactivation ([1]; 10^-8 M): 82%; Emax ([7]; read-out: HRL+N transactivation, Emax): 225%; RAR-ERcassette RARα transactivation ([6]; 10^-9 M): 65% |
| C/C(=C/c1ccc2c(c1)C(C)(C)CCC2(C)C)c1ccc(C(=O)O)nc1 [CB16279, (Z) 5-[1-(5,6,7,8-tetrahydro-5,5,8,8-tetramethyl-2-naphthalenyl)-2-propenyl]pyridinyl-2-carboxylic acid] | 33% | partial agonists at 1 μM for the three RAR receptors | – | – | – | – | – | – | 60% | 6% | – | – | bring about a transactivation greater than RAR selective agonists (TTNPB) | – | RAR/RXR activity profile (in words) [2]: panagonistic |
| C/C(=C\c1ccc(C(=O)O)cc1)c1ccc2c(c1)C(C)(C)CCC2(C)C [TTNPB, reference compound] | – | good RAR agonists | 78.9% | 78.5% | 3.6% | 3.5% | 61.7% | 58.5% | – | – | – | – | – | inhibit the cellular increase of the two mammary lineages at the concentrations tested | effect on cellular increase, A-427 (in words) [4]: inhibits the A-427 lineage at 10^-6 M and 10^-8 M |

Source: patent US6265423A, “Aromatic polycyclic retinoid-type derivatives, method for preparing same, and use thereof for making pharmaceutical and cosmetic compositions” (priority 1996, dated 2001)
